This is an account of results in the supplement of paper PMC8372320.
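Further: aromatic molecules in triethylamine/methanol/water with Pt photoreduced in situ, irradiated 3 h under a 1 sun AM 1.5G solar simulator (350–1000 nm), H2 quantified by headspace gas chromatography; listed molecule itself used as the photocatalyst at 5 mg per vial.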

The series is described as follows: photocatalytic hydrogen evolution rate (per 5 mg catalyst); higher = more photocatalytic H2 evolution; extreme values may be limits of the assay. The settings on record: catalyst mass (mg): 5; Pt cocatalyst (wt%): 3; sacrificial medium: triethylamine/methanol/water 1:1:1.
On to `Brc1ccc(C#CC#Cc2ccc(Br)cc2)cc1`, for which the “photocatalytic hydrogen evolution rate” value was determined as 0 µmol/h.

For the compound `O=Cc1ccc(O)cc1`, the “photocatalytic hydrogen evolution rate” value came out at 0.00783 µmol/h.

In the case of `CN(C)c1ccc(C=O)cc1`, the “photocatalytic hydrogen evolution rate” value was 0.34 µmol/h. Turning to `N#Cc1ccc(CCc2ccc(C#N)cc2)cc1`, the “photocatalytic hydrogen evolution rate” value came to 0 µmol/h. For `Nc1c(Br)cnc(Br)c1N`, the “photocatalytic hydrogen evolution rate” value was 0 µmol/h.

As for `N#Cc1ccc(-c2ccccc2C#N)cc1`, the “photocatalytic hydrogen evolution rate” value came out at 0 µmol/h.

Turning to `O=Cc1cccc(-c2ccccn2)c1`, the “photocatalytic hydrogen evolution rate” value was 2.43 µmol/h. In the case of `OB(O)c1cccc(B(O)O)c1`, the “photocatalytic hydrogen evolution rate” value turned out to be 0 µmol/h.

Take `N#Cc1c(F)c(F)c(C#N)c(F)c1F`: the “photocatalytic hydrogen evolution rate” value is 8.13 µmol/h.

In the case of `N#Cc1cccnc1-c1ncccc1C#N`, the “photocatalytic hydrogen evolution rate” value stood at 0 µmol/h. As to `O=C(O)Cc1ccc(-c2ccccc2)cc1`, the “photocatalytic hydrogen evolution rate” value came out at 0.0393 µmol/h. To `Cc1cc(N)ccc1-c1ccc(N)cc1C` belongs 0.055 µmol/h; to `O=C(O)c1ccc(-c2nc(-c3ccc(C(=O)O)cc3)nc(-c3ccc(C(=O)O)cc3)n2)cc1`, 0.201 µmol/h; to `O=C(c1ccc(O)cc1)c1ccc(O)cc1`, 0 µmol/h. Regarding `COC(=O)c1ccc2cc(Br)ccc2c1`, the “photocatalytic hydrogen evolution rate” value is 0 µmol/h.

Consider `Cc1cc(N)ccc1C#N`, for which the “photocatalytic hydrogen evolution rate” value was found to be 0 µmol/h. Regarding `OCc1cccc2cc3cccc(CO)c3cc12`, the “photocatalytic hydrogen evolution rate” value is 0.00242 µmol/h. In the case of `O=Cc1ccc(-c2ccc(-c3ccc(C=O)s3)s2)s1`, the “photocatalytic hydrogen evolution rate” value was determined as 1.6 µmol/h. For `COC(=O)c1ccc(-c2ccc(Br)cc2)cc1`, the “photocatalytic hydrogen evolution rate” value came out at 0.0357 µmol/h. To `N#Cc1cccc(N)c1` belongs 0 µmol/h; to `COC(=O)c1ccc(B(O)O)cc1`, 0.0394 µmol/h. On to `C#Cc1cc(C(=O)O)cc(C(=O)O)c1`, for which the “photocatalytic hydrogen evolution rate” value came out at 0 µmol/h. On to `CC(C)(C)c1ccc(C(=O)CC#N)cc1`, for which the “photocatalytic hydrogen evolution rate” value was 0.0435 µmol/h. To `Nc1ccc(-c2ccc(N)c([N+](=O)[O-])c2)cc1[N+](=O)[O-]` belongs 0 µmol/h; to `Brc1ccccc1-c1ccccc1Br`, 0 µmol/h. As for `NC(=O)c1ccc(B(O)O)cc1`, the “photocatalytic hydrogen evolution rate” value is 0 µmol/h. Take `CC(=O)c1ccc(CCc2ccc(C(C)=O)cc2)cc1`: the “photocatalytic hydrogen evolution rate” value is 0.387 µmol/h. Regarding `OC1(c2ccccc2)c2cc(Br)ccc2-c2ccc(Br)cc21`, the “photocatalytic hydrogen evolution rate” value is 0.101 µmol/h. Regarding `N#CCc1ccc(Cl)nc1`, the “photocatalytic hydrogen evolution rate” value is 0 µmol/h. In the case of `CC1(C)OB(c2ccc(N)cc2)OC1(C)C` it was 0.0761 µmol/h; in that of `Brc1c(Br)c(Br)c(Br)c(Br)c1Br`, 0 µmol/h; in that of `Brc1ccc(Br)nc1`, 0 µmol/h. With `Brc1c2ccccc2c(Br)c2ccccc12`, the “photocatalytic hydrogen evolution rate” value was 0.0125 µmol/h. To `COC(=O)c1cc(C(=O)OC)c(C(=O)OC)cc1C(=O)OC` belongs 0 µmol/h. With `c1cc(-c2nc(-c3ccncc3)nc(-c3ccncc3)n2)ccn1`, the “photocatalytic hydrogen evolution rate” value turned out to be 0 µmol/h. For the compound `O=Cc1c(O)c(C=O)c(O)c(C=O)c1O`, the “photocatalytic hydrogen evolution rate” value was 1.03 µmol/h. In the case of `C#Cc1ccc(Br)cc1` it was 0 µmol/h; in that of `O=Cc1ccc(C(=O)O)cc1O`, 8.19 µmol/h. To `Brc1ccc(OCC2CCCCO2)c(Br)c1` (stereo not drawn) belongs 0 µmol/h; to `CN(C)c1ccncc1`, 0 µmol/h. Turning to `N#Cc1ccc(O)cc1`, the “photocatalytic hydrogen evolution rate” value came out at 0 µmol/h. To `Nc1ccc(-c2nc(-c3ccc(N)cc3)nc(-c3ccc(N)cc3)n2)cc1` belongs 0 µmol/h; to `O=Cc1ccc(-c2ccccn2)cc1`, 5.1 µmol/h.
